Reference: article PMC10150365 (Journal of Medicinal Chemistry, 2023)

Experiments:
[1] = target: T1, Platelet Activating Factor (PAF) (Homo sapiens, UniProt P25105); assay: Cerep SafetyScreen-87; type: binding; conditions: n=2
T1 construct: purchased Eurofins Cerep/Panlabs SafetyScreen-87

[2] = target: T2, Glutamate, Metabotropic, mGlu5 (Homo sapiens, UniProt P41594); assay: Cerep SafetyScreen-87; type: binding; conditions: n=2
T2 construct: purchased Eurofins Cerep/Panlabs SafetyScreen-87

[3] = target: T3, Transporter, Dopamine (DAT) (Homo sapiens, UniProt Q01959); assay: Cerep SafetyScreen-87; type: binding; conditions: n=2
T3 construct: purchased Eurofins Cerep/Panlabs SafetyScreen-87

[4] = target: T4, Leukotriene, Cysteinyl CysLT1 (Homo sapiens, UniProt Q9Y271); assay: Cerep SafetyScreen-87; type: binding; conditions: n=2
T4 construct: purchased Eurofins Cerep/Panlabs SafetyScreen-87

GABAB1A = target: T5, GABAB1A (Homo sapiens, UniProt Q9UBS5); assay: Cerep SafetyScreen-87; type: binding; conditions: n=2
T5 construct: purchased Eurofins Cerep/Panlabs SafetyScreen-87

Cyclooxigenase COX-2 = target: T6, Cyclooxigenase COX-2 (Homo sapiens, UniProt P35354); assay: Cerep SafetyScreen-87; type: biochemical; conditions: n=2
T6 construct: purchased Eurofins Cerep/Panlabs SafetyScreen-87

[5] = target: T7, Peptidase, CTSG (Cathepsin G) (Homo sapiens, UniProt P08311); assay: Cerep SafetyScreen-87; type: biochemical; conditions: n=2
T7 construct: purchased Eurofins Cerep/Panlabs SafetyScreen-87

Opiate K (OP2, KOP) = target: T8, Opiate K (OP2, KOP) (Homo sapiens, UniProt P41145); assay: Cerep SafetyScreen-87; type: binding; conditions: n=2
T8 construct: purchased Eurofins Cerep/Panlabs SafetyScreen-87

Opiate δ1 (OP1, DOP) = target: T9, Opiate δ1 (OP1, DOP) (Homo sapiens, UniProt P41143); assay: Cerep SafetyScreen-87; type: binding; conditions: n=2
T9 construct: purchased Eurofins Cerep/Panlabs SafetyScreen-87

[6] = target: T10, Cholinesterase, Acetyl, ACES (Homo sapiens, UniProt P22303); assay: Cerep SafetyScreen-87; type: biochemical; conditions: n=2
T10 construct: purchased Eurofins Cerep/Panlabs SafetyScreen-87

Dopamine D2S = target: T11, Dopamine D2S (Homo sapiens, UniProt P14416); assay: Cerep SafetyScreen-87; type: binding; conditions: n=2
T11 construct: purchased Eurofins Cerep/Panlabs SafetyScreen-87

[7] = target: T12, Protein Tyrosine Kinase, LCK (Homo sapiens, UniProt P06239); assay: Cerep SafetyScreen-87; type: biochemical; conditions: n=2
T12 construct: purchased Eurofins Cerep/Panlabs SafetyScreen-87

[8] = target: T13, Serotonin (5-Hydroxytryptamine) 5-HT1B (Homo sapiens, UniProt P28222); assay: Cerep SafetyScreen-87; type: binding; conditions: n=2
T13 construct: purchased Eurofins Cerep/Panlabs SafetyScreen-87

Adrenergic α2B = target: T14, Adrenergic α2B (Homo sapiens, UniProt P18089); assay: Cerep SafetyScreen-87; type: binding; conditions: n=2
T14 construct: purchased Eurofins Cerep/Panlabs SafetyScreen-87

Bradykinin B2 = target: T15, Bradykinin B2 (Homo sapiens, UniProt P30411); assay: Cerep SafetyScreen-87; type: binding; conditions: n=2
T15 construct: purchased Eurofins Cerep/Panlabs SafetyScreen-87

Tachykinin NK1 = target: T16, Tachykinin NK1 (Homo sapiens, UniProt P25103); assay: Cerep SafetyScreen-87; type: binding; conditions: n=2
T16 construct: purchased Eurofins Cerep/Panlabs SafetyScreen-87

[9] = target: T17, Cholecystokinin CCK1 (CCKA) (Homo sapiens, UniProt P32238); assay: Cerep SafetyScreen-87; type: binding; conditions: n=2
T17 construct: purchased Eurofins Cerep/Panlabs SafetyScreen-87

Glucocorticoid = target: T18, Glucocorticoid (Homo sapiens, UniProt P04150); assay: Cerep SafetyScreen-87; type: binding; conditions: n=2
T18 construct: purchased Eurofins Cerep/Panlabs SafetyScreen-87

Muscarinic M1 = target: T19, Muscarinic M1 (Homo sapiens, UniProt P11229); assay: Cerep SafetyScreen-87; type: binding; conditions: n=2
T19 construct: purchased Eurofins Cerep/Panlabs SafetyScreen-87

Angiotensin AT1 = target: T20, Angiotensin AT1 (Homo sapiens, UniProt P30556); assay: Cerep SafetyScreen-87; type: binding; conditions: n=2
T20 construct: purchased Eurofins Cerep/Panlabs SafetyScreen-87

Monoamine Oxidase MAO-B = target: T21, Monoamine Oxidase MAO-B (Homo sapiens, UniProt P27338); assay: Cerep SafetyScreen-87; type: biochemical; conditions: n=2
T21 construct: purchased Eurofins Cerep/Panlabs SafetyScreen-87

Adenosine A1 = target: T22, Adenosine A1 (Homo sapiens, UniProt P30542); assay: Cerep SafetyScreen-87; type: binding; conditions: n=2
T22 construct: purchased Eurofins Cerep/Panlabs SafetyScreen-87

[10] = target: T23, Serotonin (5-Hydroxytryptamine) 5-HT2C (Homo sapiens, UniProt P28335); assay: Cerep SafetyScreen-87; type: binding; conditions: n=2
T23 construct: purchased Eurofins Cerep/Panlabs SafetyScreen-87

Dopamine D1 = target: T24, Dopamine D1 (Homo sapiens, UniProt P21728); assay: Cerep SafetyScreen-87; type: binding; conditions: n=2
T24 construct: purchased Eurofins Cerep/Panlabs SafetyScreen-87

Adenosine A2A [11] = target: T25, Adenosine A2A (Homo sapiens, UniProt P29274); assay: Cerep SafetyScreen-87; type: binding; design: purchased Eurofins Cerep/Panlabs SafetyScreen-87; conditions: n=2
[12] = target: T26, Serotonin (5-Hydroxytryptamine) 5-HT3 (Homo sapiens, UniProt P46098); assay: Cerep SafetyScreen-87; type: binding; conditions: n=2
T26 construct: purchased Eurofins Cerep/Panlabs SafetyScreen-87

[13] = target: T27, Serotonin (5-Hydroxytryptamine) 5-HT2A (Homo sapiens, UniProt P28223); assay: Cerep SafetyScreen-87; type: binding; conditions: n=2
T27 construct: purchased Eurofins Cerep/Panlabs SafetyScreen-87

Monoamine Oxidase MAO-A = target: T28, Monoamine Oxidase MAO-A (Homo sapiens, UniProt P21397); assay: Cerep SafetyScreen-87; type: biochemical; conditions: n=2
T28 construct: purchased Eurofins Cerep/Panlabs SafetyScreen-87

Progesterone PR-B = target: T29, Progesterone PR-B (Homo sapiens, UniProt P06401); assay: Cerep SafetyScreen-87; type: binding; conditions: n=2
T29 construct: purchased Eurofins Cerep/Panlabs SafetyScreen-87

Adrenergic β1 = target: T30, Adrenergic β1 (Homo sapiens, UniProt P08588); assay: Cerep SafetyScreen-87; type: binding; conditions: n=2
T30 construct: purchased Eurofins Cerep/Panlabs SafetyScreen-87

[14] = target: T31, Serotonin (5-Hydroxytryptamine) 5-HT1A (Homo sapiens, UniProt P08908); assay: Cerep SafetyScreen-87; type: binding; conditions: n=2
T31 construct: purchased Eurofins Cerep/Panlabs SafetyScreen-87

Glutamate, NMDA, Glycine = Glutamate, NMDA, Glycine (Rattus norvegicus, UniProt P35439); assay: Cerep SafetyScreen-87; type: binding; conditions: n=2
Calcium Channel N-type = target: T32, Calcium Channel N-type (Rattus norvegicus, UniProt Q02294); assay: Cerep SafetyScreen-87; type: binding; conditions: n=2
T32 construct: purchased Eurofins Cerep/Panlabs SafetyScreen-87

Adenosine A2A [15] = target: T25, Adenosine A2A; type: cell-based; design: Cerep (contract assay) test=2527; conditions: functional assay, antagonist mode; read-out: adenosine A2A antagonism IC50
Opiate µ (OP3, MOP) = target: T33, Opiate µ (OP3, MOP) (Homo sapiens, UniProt P35372); assay: Cerep SafetyScreen-87; type: binding; conditions: n=2
T33 construct: purchased Eurofins Cerep/Panlabs SafetyScreen-87

Chemokine CXCR2 (IL-8RB) = target: T34, Chemokine CXCR2 (IL-8RB) (Homo sapiens, UniProt P25025); assay: Cerep SafetyScreen-87; type: binding; conditions: n=2
T34 construct: purchased Eurofins Cerep/Panlabs SafetyScreen-87

[16] = target: T35, Peptidase, Angiotensin Converting Enzyme (Oryctolagus cuniculus, UniProt P12822); assay: Cerep SafetyScreen-87; type: biochemical, rabbit; conditions: n=2
T35 construct: purchased Eurofins Cerep/Panlabs SafetyScreen-87

Chemokine CCR1 = target: T36, Chemokine CCR1 (Homo sapiens, UniProt P32246); assay: Cerep SafetyScreen-87; type: binding; conditions: n=2
T36 construct: purchased Eurofins Cerep/Panlabs SafetyScreen-87

Dopamine D2L = target: T37, Dopamine D2L (Homo sapiens, UniProt P14416); assay: Cerep SafetyScreen-87; type: binding; conditions: n=2
T37 construct: purchased Eurofins Cerep/Panlabs SafetyScreen-87

Estrogen ERα = target: T38, Estrogen ERα (Homo sapiens, UniProt P03372); assay: Cerep SafetyScreen-87; type: binding; conditions: n=2
T38 construct: purchased Eurofins Cerep/Panlabs SafetyScreen-87

T25 sequence (P29274 whole entry): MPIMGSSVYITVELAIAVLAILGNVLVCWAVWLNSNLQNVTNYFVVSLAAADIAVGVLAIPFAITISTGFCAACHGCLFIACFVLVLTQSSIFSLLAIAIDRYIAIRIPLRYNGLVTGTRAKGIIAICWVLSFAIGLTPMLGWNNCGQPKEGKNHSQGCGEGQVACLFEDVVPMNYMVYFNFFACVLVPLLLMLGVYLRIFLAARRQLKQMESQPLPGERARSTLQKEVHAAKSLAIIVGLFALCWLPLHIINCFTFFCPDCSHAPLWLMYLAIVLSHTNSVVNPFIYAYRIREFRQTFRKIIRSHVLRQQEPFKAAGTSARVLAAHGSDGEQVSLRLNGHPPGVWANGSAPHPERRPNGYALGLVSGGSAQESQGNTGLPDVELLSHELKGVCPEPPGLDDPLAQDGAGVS
T22 sequence (P30542 whole entry): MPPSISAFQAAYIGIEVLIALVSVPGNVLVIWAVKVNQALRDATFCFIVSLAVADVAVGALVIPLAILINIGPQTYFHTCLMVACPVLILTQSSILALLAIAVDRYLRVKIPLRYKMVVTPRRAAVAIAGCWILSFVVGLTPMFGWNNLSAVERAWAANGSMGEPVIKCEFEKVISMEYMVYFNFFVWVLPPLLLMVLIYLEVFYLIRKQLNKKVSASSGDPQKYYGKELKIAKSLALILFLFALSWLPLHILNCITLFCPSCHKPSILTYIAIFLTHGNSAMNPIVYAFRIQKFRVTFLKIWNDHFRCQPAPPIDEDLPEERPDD
T5 sequence (Q9UBS5 15-961 limits assumed): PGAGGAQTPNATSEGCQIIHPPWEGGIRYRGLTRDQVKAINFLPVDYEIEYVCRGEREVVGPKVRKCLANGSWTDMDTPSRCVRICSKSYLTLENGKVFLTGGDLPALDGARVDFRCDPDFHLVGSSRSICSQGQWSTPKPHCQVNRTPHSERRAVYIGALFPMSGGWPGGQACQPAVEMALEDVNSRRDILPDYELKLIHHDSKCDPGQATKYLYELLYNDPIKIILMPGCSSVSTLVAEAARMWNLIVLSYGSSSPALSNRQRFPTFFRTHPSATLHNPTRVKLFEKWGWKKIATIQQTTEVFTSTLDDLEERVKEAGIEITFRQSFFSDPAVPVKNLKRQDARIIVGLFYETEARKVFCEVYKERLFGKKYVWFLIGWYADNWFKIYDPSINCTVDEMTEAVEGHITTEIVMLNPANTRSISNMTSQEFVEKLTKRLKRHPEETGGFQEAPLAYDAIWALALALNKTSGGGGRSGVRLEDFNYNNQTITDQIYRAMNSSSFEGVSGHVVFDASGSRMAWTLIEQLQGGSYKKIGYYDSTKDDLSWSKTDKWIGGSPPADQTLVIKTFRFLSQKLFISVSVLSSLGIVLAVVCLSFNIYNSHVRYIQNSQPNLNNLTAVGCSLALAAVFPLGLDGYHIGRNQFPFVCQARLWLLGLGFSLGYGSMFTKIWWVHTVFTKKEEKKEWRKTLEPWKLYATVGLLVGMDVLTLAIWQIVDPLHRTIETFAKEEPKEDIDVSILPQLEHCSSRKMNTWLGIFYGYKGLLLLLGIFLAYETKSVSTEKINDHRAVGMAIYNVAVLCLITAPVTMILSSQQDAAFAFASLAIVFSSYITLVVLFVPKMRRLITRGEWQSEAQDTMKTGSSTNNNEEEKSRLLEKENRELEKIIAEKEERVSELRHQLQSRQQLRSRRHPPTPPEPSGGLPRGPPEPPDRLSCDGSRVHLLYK
T5 sequence (O75899 42-941 partner): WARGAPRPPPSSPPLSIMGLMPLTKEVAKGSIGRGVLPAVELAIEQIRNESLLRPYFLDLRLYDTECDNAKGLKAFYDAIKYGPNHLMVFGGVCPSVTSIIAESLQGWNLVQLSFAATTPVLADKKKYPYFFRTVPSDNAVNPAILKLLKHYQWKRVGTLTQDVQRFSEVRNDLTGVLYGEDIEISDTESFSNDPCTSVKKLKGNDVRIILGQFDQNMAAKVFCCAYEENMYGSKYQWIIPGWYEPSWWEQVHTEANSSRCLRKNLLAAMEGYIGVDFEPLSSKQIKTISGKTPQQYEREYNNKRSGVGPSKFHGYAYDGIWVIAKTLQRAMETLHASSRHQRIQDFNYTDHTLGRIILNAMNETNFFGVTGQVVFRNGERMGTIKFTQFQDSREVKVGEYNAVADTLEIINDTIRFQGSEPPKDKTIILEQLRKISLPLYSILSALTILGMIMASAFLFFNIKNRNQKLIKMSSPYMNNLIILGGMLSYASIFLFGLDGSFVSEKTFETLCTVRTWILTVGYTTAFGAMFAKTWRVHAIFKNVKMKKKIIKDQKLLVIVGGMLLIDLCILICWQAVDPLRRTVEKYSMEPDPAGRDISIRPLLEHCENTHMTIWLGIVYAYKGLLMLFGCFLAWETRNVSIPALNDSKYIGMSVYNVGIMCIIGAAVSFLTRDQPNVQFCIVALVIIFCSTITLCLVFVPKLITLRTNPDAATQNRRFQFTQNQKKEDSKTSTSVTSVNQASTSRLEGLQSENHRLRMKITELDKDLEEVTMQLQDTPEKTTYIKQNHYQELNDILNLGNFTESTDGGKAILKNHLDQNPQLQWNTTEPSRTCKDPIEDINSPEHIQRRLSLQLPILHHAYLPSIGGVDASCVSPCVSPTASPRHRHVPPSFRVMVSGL
T8 sequence (P41145 whole entry): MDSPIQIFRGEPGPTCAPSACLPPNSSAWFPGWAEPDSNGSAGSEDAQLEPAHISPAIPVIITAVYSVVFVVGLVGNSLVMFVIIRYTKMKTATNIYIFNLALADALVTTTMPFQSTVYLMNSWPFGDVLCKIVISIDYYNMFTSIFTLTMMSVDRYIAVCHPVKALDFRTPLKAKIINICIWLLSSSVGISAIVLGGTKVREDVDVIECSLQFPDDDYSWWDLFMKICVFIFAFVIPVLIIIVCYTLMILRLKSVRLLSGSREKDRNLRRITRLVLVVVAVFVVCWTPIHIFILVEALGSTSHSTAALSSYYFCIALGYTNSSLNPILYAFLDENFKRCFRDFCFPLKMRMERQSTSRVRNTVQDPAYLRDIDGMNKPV
T34 sequence (P25025 whole entry): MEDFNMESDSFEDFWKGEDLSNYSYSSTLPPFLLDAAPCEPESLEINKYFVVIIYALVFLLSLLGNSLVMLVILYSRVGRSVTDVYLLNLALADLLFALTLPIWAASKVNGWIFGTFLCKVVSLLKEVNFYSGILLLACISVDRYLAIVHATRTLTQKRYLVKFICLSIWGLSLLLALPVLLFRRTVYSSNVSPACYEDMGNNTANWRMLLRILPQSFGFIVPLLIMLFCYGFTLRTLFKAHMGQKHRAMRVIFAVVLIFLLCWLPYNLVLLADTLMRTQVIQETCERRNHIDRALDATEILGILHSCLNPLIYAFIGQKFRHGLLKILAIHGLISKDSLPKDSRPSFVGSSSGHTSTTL
T14 sequence (P18089 whole entry): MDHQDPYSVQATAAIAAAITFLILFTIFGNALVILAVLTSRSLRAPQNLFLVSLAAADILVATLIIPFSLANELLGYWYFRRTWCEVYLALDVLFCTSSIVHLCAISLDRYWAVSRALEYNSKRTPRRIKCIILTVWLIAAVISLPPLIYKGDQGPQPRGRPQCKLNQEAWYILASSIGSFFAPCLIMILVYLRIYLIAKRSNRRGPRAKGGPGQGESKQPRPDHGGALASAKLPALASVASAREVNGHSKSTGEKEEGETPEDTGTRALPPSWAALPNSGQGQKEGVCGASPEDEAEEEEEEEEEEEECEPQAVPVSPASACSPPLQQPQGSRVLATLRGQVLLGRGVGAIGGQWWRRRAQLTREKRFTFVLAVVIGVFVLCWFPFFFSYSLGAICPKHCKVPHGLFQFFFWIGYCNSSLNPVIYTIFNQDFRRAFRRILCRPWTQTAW
T17 sequence (P32238 whole entry): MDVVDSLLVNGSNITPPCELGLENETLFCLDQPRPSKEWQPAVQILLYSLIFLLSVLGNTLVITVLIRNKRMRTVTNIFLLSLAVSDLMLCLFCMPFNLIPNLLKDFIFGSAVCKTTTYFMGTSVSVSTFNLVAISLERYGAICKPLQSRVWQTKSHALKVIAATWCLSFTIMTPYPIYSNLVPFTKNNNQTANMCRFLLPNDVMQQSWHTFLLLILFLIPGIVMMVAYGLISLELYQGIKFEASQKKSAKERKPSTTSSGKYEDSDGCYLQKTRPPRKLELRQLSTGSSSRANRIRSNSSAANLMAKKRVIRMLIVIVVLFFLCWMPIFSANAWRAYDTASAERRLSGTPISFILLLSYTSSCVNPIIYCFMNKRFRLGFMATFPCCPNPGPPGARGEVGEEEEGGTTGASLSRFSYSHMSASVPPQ
T12 sequence (P06239 whole entry): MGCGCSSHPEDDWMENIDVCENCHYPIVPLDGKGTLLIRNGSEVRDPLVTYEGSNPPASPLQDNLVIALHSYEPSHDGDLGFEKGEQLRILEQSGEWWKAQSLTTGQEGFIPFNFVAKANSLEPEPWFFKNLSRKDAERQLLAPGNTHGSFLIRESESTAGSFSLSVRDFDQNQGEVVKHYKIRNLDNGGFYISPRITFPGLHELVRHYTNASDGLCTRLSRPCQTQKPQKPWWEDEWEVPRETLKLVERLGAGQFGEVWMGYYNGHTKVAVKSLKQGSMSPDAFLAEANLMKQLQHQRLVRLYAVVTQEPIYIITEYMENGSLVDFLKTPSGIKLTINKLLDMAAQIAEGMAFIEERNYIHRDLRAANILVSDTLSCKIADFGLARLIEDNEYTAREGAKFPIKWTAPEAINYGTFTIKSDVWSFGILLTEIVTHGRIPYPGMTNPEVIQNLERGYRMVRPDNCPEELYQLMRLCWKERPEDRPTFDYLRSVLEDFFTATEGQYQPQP
T7 sequence (P08311 21-255): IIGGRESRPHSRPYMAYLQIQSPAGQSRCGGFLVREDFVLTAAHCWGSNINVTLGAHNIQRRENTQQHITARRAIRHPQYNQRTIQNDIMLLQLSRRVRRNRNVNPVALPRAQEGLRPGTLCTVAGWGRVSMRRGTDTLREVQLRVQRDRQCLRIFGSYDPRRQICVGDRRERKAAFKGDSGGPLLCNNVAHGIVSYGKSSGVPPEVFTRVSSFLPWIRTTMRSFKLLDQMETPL

## CCN1CCN(Cc2ccc3cc(C(=O)Nc4cc(NC(=O)c5ccc6c(c5)OCCO6)ccc4F)ccc3n2)CC1 [Compound 22, N-(5-(2,3-Dihydrobenzo[b][1,4]dioxine-6-carboxamido)-2-fluorophenyl)-2-((4-ethylpiperazin-1-yl)methyl)quinoline-6-carboxamide]
[1]
  inhibition at 10 µM: […]
[2]
  inhibition at 10 µM: -2%
[3]
  inhibition at 10 µM: 38%
[4]
  inhibition at 10 µM: 7%
GABAB1A
  inhibition at 10 µM: 4%
Cyclooxigenase COX-2
  inhibition at 10 µM: -5%
[5]
  inhibition at 10 µM: 1%
Opiate K (OP2, KOP)
  inhibition at 10 µM: 51%
Opiate δ1 (OP1, DOP)
  inhibition at 10 µM: 9%
[6]
  inhibition at 10 µM: 2%
Dopamine D2S
  inhibition at 10 µM: 5%
[7]
  inhibition at 10 µM: -8%
[8]
  inhibition at 10 µM: 43%
Adrenergic α2B
  inhibition at 10 µM: 79%
Bradykinin B2
  inhibition at 10 µM: 0%
Tachykinin NK1
  inhibition at 10 µM: 14%
[9]
  inhibition at 10 µM: 9%
Glucocorticoid
  inhibition at 10 µM: 9%
Muscarinic M1
  inhibition at 10 µM: 43%
Angiotensin AT1
  inhibition at 10 µM: 1%
Monoamine Oxidase MAO-B
  inhibition at 10 µM: 36%
Adenosine A1
  inhibition at 10 µM: 11%
[10]
  inhibition at 10 µM: 55%
Dopamine D1
  inhibition at 10 µM: 41%
Adenosine A2A [11]
  inhibition at 10 µM: 91%
[12]
  inhibition at 10 µM: -10%
[13]
  inhibition at 10 µM: 64%
Monoamine Oxidase MAO-A
  inhibition at 10 µM: 77%
Progesterone PR-B
  inhibition at 10 µM: 5%
Adrenergic β1
  inhibition at 10 µM: 4%
[14]
  inhibition at 10 µM: 4%
Glutamate, NMDA, Glycine
  inhibition at 10 µM: -24%
Calcium Channel N-type
  inhibition at 10 µM: 9%
Adenosine A2A [15]
  IC50: 2000 nM
Opiate µ (OP3, MOP)
  inhibition at 10 µM: 44%
Chemokine CXCR2 (IL-8RB)
  inhibition at 10 µM: 7%
[16]
  inhibition at 10 µM: 13%
Chemokine CCR1
  inhibition at 10 µM: 2%
Dopamine D2L
  inhibition at 10 µM: 20%
Estrogen ERα
  inhibition at 10 µM: -1%
